“And” between values parts separate entries of the source, which are not always exact repeats. Equal entries are not always repeated. “Also recorded” adds a separate entry of the source. Where two headings read alike, the source gives them in different places. Blank lines part the entries; values can stand above or below the compound they belong to.
How the values were obtained:
hCNT3 = conditions: read-out: Km for gemcitabine transport; Xenopus laevis oocytes; cited from earlier work
hENT2 = conditions: read-out: Km for gemcitabine transport; Xenopus laevis oocytes; cited from earlier work
[1] = test system: nucleoside transporters (CNT1, CNT3, ENT1, ENT2); assay: Inhibition; assay type: in vivo, C57BL/6 mice
hCNT1 = conditions: read-out: Km for gemcitabine transport; Xenopus laevis oocytes; cited from earlier work
[2] = 100 μM gemcitabine, female BALB/c mice, corrected for cytosine; cited from earlier work
[3] = mice, cited from earlier work
[4] = In situ single-pass jejunal perfusion of gemcitabine; assay type: in vivo, C57BL/6 mice; conditions: for Papp at 90 min, 100 μM: pH 6, effective permeability (Peff)
[5] = as above; assay type: in vivo, BALB/c mice; conditions: female, BALB/c, mouse, other: in situ single-pass jejunal perfusion, pH 6
hENT1 = conditions: read-out: Km for gemcitabine transport; Xenopus laevis oocytes; cited from earlier work
[6] = cited from earlier work
ENT1 and ENT2 = assay type: in vivo, C57BL/6 mice; conditions: 5 μM [14C]-gemcitabine, 90 min perfusion, 2 mM dilazep
[7] = from intrinsic clearance Vmax/Km, linear conditions
[8] = jejunal flux, 0.5 μM to 2 mM, fit to two Michaelis-Menten terms
[9] = 5 μM gemcitabine co-perfused with 2 mM inhibitor, sodium-containing buffer

jejunal uptake mediated by nucleoside transporters ([1]; C57BL/6 mice): ~ 95% | effective permeability (Peff) ([4]; 100 μM gemcitabine, jejunum, C57BL/6 mice, analyzed by UPLC): 110 ×10⁻⁶ cm/s | Papp at 90 min, 100 μM ([4]; both, C57BL/6, mouse, other: in situ single-pass jejunal perfusion, 100 μM [14C]-gemcitabine, jejunum, C57BL/6 mice, analyzed by radioactivity): 105 ×10⁻⁶ cm/s | Papp at 90 min, 100 μM ([4]; both, C57BL/6, mouse, other: in situ single-pass jejunal perfusion, 100 μM gemcitabine, jejunum, C57BL/6 mice, analyzed by UPLC): 114 ×10⁻⁶ cm/s | Papp at 90 min, 5 μM ([4]; both, C57BL/6, mouse, other: in situ single-pass jejunal perfusion, pH 6, in situ jejunal permeability, 5 μM gemcitabine, C57BL/6 mice): 150 to 190 ×10⁻⁶ cm/s | predicted contribution of the high-affinity transport system to uptake [4, 7]: 72% | predicted contribution of the low-affinity transport system to uptake [4, 7]: 28% | Km ([4]; read-out: Km,1 (high-affinity, low-capacity transport system), jejunal flux, 0.5 μM to 2 mM, fit to two Michaelis-Menten terms): 27.4 ± 13.9 µM | Km ([4]; read-out: Km,2 (low-affinity, high-capacity transport system), jejunal flux, 0.5 μM to 2 mM, fit to two Michaelis-Menten terms): 700 ± 330 µM | Papp at 90 min, 100 μM [5]: 109 ± 13 ×10⁻⁶ cm/s
Compound: Nc1ccn([C@@H]2O[C@H](CO)[C@@H](O)C2(F)F)c(=O)n1 [gemcitabine, 2′,2′-difluoro-2′-deoxycytidine]
Km (hCNT3): ~60 µM | Km (hENT2): ~750 µM | residual permeability of gemcitabine ([1]; 5 μM gemcitabine in sodium-free buffer (inhibits CNT1 and CNT3)): 31.7% | Km (hCNT1): ~25 µM | Peff [2]: 2 ×10⁻⁶ cm/s | oral bioavailability ([3]; gemcitabine alone): 10% | oral bioavailability ([3]; with tetrahydrouridine (cytidine deaminase inhibitor)): 40% | Vmax,1 (high-affinity, low-capacity transport system) [4, 8]: 3.6 pmol/cm^2/s and 3.6 ± 2.1 pmol/cm^2/s | Vmax,2 (low-affinity, high-capacity transport system) [4, 8]: 35.9 pmol/cm^2/s and 35.9 ± 5.5 pmol/cm^2/s | Km (hENT1): ~160 µM

cytosine in outlet samples ([4]; perfusion of 100 μM gemcitabine, C57BL/6 and BALB/c mice): absent
Compound: Nc1cc[nH]c(=O)n1 [Cytosine, cytosine]

Compound: NCC(=O)CCC(=O)O [5-aminolevulinic acid]
in situ jejunal permeability (Peff) [6]: 0.00019 cm/s

Compound: CC(C)[C@H](N)C(=O)OCCOCn1cnc2c(=O)[nH]c(N)nc21 [valacyclovir]
in situ jejunal permeability (Peff) [6]: 9e-05 cm/s

Compound: Cc1cn([C@H]2C[C@H](O)[C@@H](CO)O2)c(=O)[nH]c1=O [thymidine]
reduction of jejunal permeability of gemcitabine [1, 9]: about 95% | residual permeability of gemcitabine [1, 9]: 4.6%

Compound: CC1=C(C(=O)O)N2C(=O)[C@@H](NC(=O)[C@H](N)c3ccc(O)cc3)[C@H]2SC1 [cefadroxil]
in situ jejunal permeability (Peff) [6]: 0.6-0.8 × 10^−4 cm/s

Compound: glycylsarcosine
in situ jejunal permeability (Peff) ([6]; mouse): 0.00017 cm/s

Compound: COc1cc(C(=O)OCCCN2CCCN(CCCOC(=O)c3cc(OC)c(OC)c(OC)c3)CC2)cc(OC)c1OC [dilazep]
reduction of jejunal permeability of gemcitabine [1, 9]: about 50% | residual permeability of gemcitabine [1, 9]: 50.2% | effect on total gemcitabine radioactivity in intestinal (jejunal) tissue (ENT1 and ENT2): not altered; also recorded: no change | total gemcitabine radioactivity in portal venous plasma, % control (ENT1 and ENT2): 32.5%

Reference: paper PMC6733655 (Biochemical pharmacology, 2019)
